# ChEMBL document CHEMBL5154820 (Eur J Med Chem, 2022)
# pIC50: −log10 of the molar value.
# Tests used:
# [1] = Toxicity against BABL/c mouse assessed as morphological changes in liver at 30 mg/kg, ip administered daily for 21 days followed by addition of 3 mg/kg DDP for every 2 days by H and E staining method; type: organism-based; details: in vivo, 504 h, time 21 day
# Tubulin (Sus scrofa) = Tubulin (Sus scrofa) (UniProt P02554+P02550); test: Inhibition of pig brain tubulin polymerization at 3 uM by spectrophotometer analysis relative to control; set-up: scale not given: the % may be the effect or the level left; details: Sus scrofa domesticus
# Tubulin (Sus scrofa), sequence (P02550 whole entry, looked up): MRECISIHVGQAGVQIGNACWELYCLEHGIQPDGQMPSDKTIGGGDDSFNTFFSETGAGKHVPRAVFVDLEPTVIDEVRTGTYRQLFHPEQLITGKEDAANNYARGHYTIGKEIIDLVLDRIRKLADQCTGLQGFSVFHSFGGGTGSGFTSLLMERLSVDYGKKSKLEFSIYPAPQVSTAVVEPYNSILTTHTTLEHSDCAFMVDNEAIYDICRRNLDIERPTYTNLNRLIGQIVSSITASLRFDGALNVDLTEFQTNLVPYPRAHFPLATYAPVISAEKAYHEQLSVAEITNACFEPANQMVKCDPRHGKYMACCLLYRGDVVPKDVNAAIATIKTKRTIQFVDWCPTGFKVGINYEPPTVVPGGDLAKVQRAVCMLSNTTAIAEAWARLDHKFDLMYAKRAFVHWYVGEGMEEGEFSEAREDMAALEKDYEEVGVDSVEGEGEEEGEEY
# Tubulin (Sus scrofa), sequence (P02554 whole entry, looked up): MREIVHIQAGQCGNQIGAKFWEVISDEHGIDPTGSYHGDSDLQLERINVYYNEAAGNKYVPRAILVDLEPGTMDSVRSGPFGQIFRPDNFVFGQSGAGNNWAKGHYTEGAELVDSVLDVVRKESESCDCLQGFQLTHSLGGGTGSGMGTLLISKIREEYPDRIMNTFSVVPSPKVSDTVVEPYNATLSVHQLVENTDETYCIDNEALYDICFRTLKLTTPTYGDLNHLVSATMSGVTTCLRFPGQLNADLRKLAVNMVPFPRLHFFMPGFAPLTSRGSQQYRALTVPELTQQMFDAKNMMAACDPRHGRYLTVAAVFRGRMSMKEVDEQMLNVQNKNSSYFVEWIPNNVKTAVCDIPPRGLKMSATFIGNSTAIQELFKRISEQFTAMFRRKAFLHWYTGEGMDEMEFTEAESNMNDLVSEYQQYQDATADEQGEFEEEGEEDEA
# [2] = target: Voltage-gated inwardly rectifying potassium channel KCNH2 (Homo sapiens, UniProt Q12809); test: Inhibition of human ERG expressed in CHO cells with holding potential of -80 mV by whole cell patch clamp assay; type: toxicity, cell-based
# Voltage-gated inwardly rectifying potassium channel KCNH2, sequence (Q12809 whole entry): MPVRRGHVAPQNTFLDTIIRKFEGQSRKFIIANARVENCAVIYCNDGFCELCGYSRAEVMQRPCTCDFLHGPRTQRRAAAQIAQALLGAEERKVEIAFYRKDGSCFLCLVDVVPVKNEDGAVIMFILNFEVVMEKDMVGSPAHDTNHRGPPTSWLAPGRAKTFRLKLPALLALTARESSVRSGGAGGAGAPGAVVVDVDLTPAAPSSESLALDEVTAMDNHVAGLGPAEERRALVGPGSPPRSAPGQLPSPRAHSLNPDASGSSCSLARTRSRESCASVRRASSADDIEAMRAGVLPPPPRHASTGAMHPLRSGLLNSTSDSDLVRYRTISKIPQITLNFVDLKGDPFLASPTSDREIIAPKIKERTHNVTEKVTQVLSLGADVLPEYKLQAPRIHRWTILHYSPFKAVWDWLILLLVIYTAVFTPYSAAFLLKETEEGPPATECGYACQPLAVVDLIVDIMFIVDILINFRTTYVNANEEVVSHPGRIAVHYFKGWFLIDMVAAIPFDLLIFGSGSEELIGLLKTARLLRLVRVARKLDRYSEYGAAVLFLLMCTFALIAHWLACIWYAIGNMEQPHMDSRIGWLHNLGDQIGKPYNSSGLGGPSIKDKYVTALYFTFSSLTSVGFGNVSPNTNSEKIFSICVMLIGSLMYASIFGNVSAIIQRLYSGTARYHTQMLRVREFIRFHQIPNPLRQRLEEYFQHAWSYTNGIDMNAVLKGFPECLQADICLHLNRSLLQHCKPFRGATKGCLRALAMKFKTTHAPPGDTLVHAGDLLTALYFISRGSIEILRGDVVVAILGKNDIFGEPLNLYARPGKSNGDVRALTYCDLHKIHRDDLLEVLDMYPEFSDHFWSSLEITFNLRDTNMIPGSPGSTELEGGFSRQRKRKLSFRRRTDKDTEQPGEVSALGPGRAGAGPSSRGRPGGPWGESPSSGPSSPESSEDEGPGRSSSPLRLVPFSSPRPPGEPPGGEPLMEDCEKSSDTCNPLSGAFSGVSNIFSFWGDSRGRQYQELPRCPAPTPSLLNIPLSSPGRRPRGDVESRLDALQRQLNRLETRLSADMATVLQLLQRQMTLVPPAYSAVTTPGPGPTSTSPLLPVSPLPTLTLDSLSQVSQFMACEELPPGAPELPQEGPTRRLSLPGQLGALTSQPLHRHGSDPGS
# HeLa [3] = test: Induction of apoptosis in human HeLa cells assessed as late apoptotic cells at 0.4 uM measured after 24 hrs by Annexin V-FITC/7-AAD staining based flow cytometric analysis (reference value: 8.51%); type: functional
# [4] = Acute toxicity against ICR mouse assessed as morphological changes in heart at 1000 mg/kg, ip measured after 14 days by H and E staining method; type: organism-based; details: in vivo, 336 h, time 14 day
# [5] = Toxicity against BABL/c mouse assessed as glomerular crescent hyperplasia in kidney at 60 mg/kg, ip administered daily for 21 days by H and E staining method; type: organism-based; details: in vivo, 504 h, time 21 day
# [6] = target: T1, Tubulin beta (Homo sapiens) (UniProt P68371+Q9H4B7+Q13509+P04350+Q3ZCM7+P07437+Q13885+Q9BVA1+Q9BUF5+A6NNZ2); test: Binding affinity to beta-tubulin colchicine binding site in human HeLa cells assessed as inhibition of EBI-beta-tubulin adduct formation measured at 1 to 100 uM incubated for 2 hrs followed by addition of EBI measured after 1.5 hrs by EBI competition based Western blotting analysis; type: cell-based; details: dose 1-100 µM, time 3.5 hrs, DDE = dose-dependent effect
# HeLa [7] = test: Induction of cell cycle arrest in human HeLa cells assessed as < 2N cells at 0.2 uM measured after 24 hrs by propidium iodide staining based flow cytometric analysis analysis ( Rvb = 7.07%); type: functional
# [8] = Toxicity against BABL/c mouse assessed as morphological changes in liver at 30 to 60 mg/kg, ip administered daily for 21 days by H and E staining method; type: organism-based; details: in vivo, 504 h, dose 30-60 mg/kg, time 21 day
# HeLa [9] = test: Induction of apoptosis in human HeLa cells assessed as early apoptotic cells at 0.1 uM measured after 24 hrs by Annexin V-FITC/7-AAD staining based flow cytometric analysis (reference value: 20.8%); type: functional
# [10] = Toxicity against BABL/c mouse assessed as morphological changes in heart at 30 mg/kg, ip administered daily for 21 days followed by addition of 3 mg/kg DDP for every 2 days by H and E staining method; type: organism-based; details: in vivo, 504 h, time 21 day
# [11] = Retention time of the compound; type: physicochemical
# HeLa [12] = test: Inhibition of colony formation in human HeLa cells at 100 nM and treated for every 48 hrs with fresh medium measured after 14 days by crystal violet staining method; type: functional; set-up: scale not given: the % may be the effect or the level left; details: time 14 day
# [13] = target: T1, Tubulin beta (Homo sapiens); test: Binding affinity to beta-tubulin colchicine binding site in human HeLa cells assessed as decrease of adduct formation by measuring gray value measured at 25 uM incubated for 2 hrs followed by addition of EBI measured after 1.5 hrs by EBI competition based Western blotting analysis; type: cell-based; details: time 3.5 hrs
# HeLa [14] = test: Induction of apoptosis in human HeLa cells assessed as necrotic cells at 0.4 uM measured after 24 hrs by Annexin V-FITC/7-AAD staining based flow cytometric analysis (reference value: 0.56%); type: functional
# HeLa [15] = test: Induction of apoptosis in human HeLa cells assessed as early apoptotic cells at 0.4 uM measured after 24 hrs by Annexin V-FITC/7-AAD staining based flow cytometric analysis (reference value: 20.8%); type: functional
# [16] = target: T1, Tubulin beta (Homo sapiens); test: Binding affinity to beta-tubulin colchicine binding site in human HeLa cells assessed as decrease of adduct formation by measuring gray value measured at 5 uM incubated for 2 hrs followed by addition of EBI measured after 1.5 hrs by EBI competition based Western blotting analysis; type: cell-based; details: time 3.5 hrs
# HeLa [17] = test: Antimigratory activity against human HeLa cells at 0.4 uM measured after 24 hrs by scratch wound healing based fluorescence inverted microscopic analysis; type: functional
# [18] = Acute toxicity in ICR mouse assessed as median lethal dose administered intraperitoneally upto 14 days; details: in vivo, route ip, time < 14 day
# HeLa [19] = test: Induction of cell cycle arrest in human HeLa cells assessed as >4N cells at 0.2 uM measured after 24 hrs by propidium iodide staining based flow cytometric analysis analysis ( Rvb = 8.84%); type: functional
# [20] = AUC(0 to infinity) in C57 nude mouse plasma at 30 mg/kg, ip measured at 0.083 to 24 hrs by LC/MS/MS analysis; type: ADME, organism-based; set-up: time lower 0.083 hrs, dose 30 mg/kg, time upper 24 hrs, route ip
# HeLa [21] = test: Induction of apoptosis in human HeLa cells assessed as late apoptotic cells at 0.2 uM measured after 24 hrs by Annexin V-FITC/7-AAD staining based flow cytometric analysis (reference value: 8.51%); type: functional
# HeLa [22] = test: Antitumour activity against human HeLa cells xenografted in BABL/c mouse assessed as reduction in tumor weight at 60 mg/kg, ip administered daily for 21 days ( Rvb = 3.36 g); type: functional; details: time 21 day
# HeLa [23] = test: Induction of apoptosis in human HeLa cells assessed as viable cells at 0.2 uM measured after 24 hrs by Annexin V-FITC/7-AAD staining based flow cytometric analysis (reference value: 70.1%); type: functional; details: read-out: Activity
# [24] = Half life in C57 nude mouse at 30 mg/kg, ip measured at 0.083 to 24 hrs by LC/MS/MS analysis; type: ADME, organism-based; details: in vivo, time 0.083-24 hrs
# HeLa [25] = test: Induction of apoptosis in human HeLa cells assessed as early apoptotic cells at 6 nM measured after 24 hrs by Annexin V-FITC/7-AAD staining based flow cytometric analysis (reference value: 18.8%); type: functional
# HeLa [26] = test: Induction of apoptosis in human HeLa cells assessed as viable cells at 6 nM measured after 24 hrs by Annexin V-FITC/7-AAD staining based flow cytometric analysis (reference value: 75.5%); type: functional; details: read-out: Activity
# HeLa [27] = test: Induction of cell cycle arrest in human HeLa cells assessed as < 2N cells at 1.5 nM measured after 24 hrs by propidium iodide staining based flow cytometric analysis analysis ( Rvb = 9.32%); type: functional
# HeLa [28] = test: Induction of cell cycle arrest in human HeLa cells assessed as 4N cells at 6 nM measured after 24 hrs by propidium iodide staining based flow cytometric analysis analysis ( Rvb = 17.1%); type: functional
# HeLa [29] = test: Induction of apoptosis in human HeLa cells assessed as necrotic cells at 1.5 nM measured after 24 hrs by Annexin V-FITC/7-AAD staining based flow cytometric analysis (reference value: 0.45%); type: functional
# HeLa [30] = test: Induction of apoptosis in human HeLa cells assessed as necrotic cells at 6 nM measured after 24 hrs by Annexin V-FITC/7-AAD staining based flow cytometric analysis (reference value: 0.45%); type: functional
# HeLa [31] = test: Induction of apoptosis in human HeLa cells assessed as late apoptotic cells at 3 nM measured after 24 hrs by Annexin V-FITC/7-AAD staining based flow cytometric analysis (reference value: 5.22%); type: functional
structure (smiles),measurement,setting,value
CCOc1ccc(-c2cncnc2-c2cc(OC)c(OC)c(OC)c2)cc1Cl,Activity,[1],Non-Toxic
same,Activity,Tubulin (Sus scrofa),39%
same,pIC50,[2],4.65
same,Activity,HeLa [3],3.98%
same,Activity,[4],Non-Toxic
same,Activity,[5],Toxic
same,Activity,[6],Dde
same,Activity,HeLa [7],0.59%
same,Activity,[8],Non-Toxic
same,Activity,HeLa [9],35.9%
same,Activity,[10],Non-Toxic
same,Retention_time,[11],2.06 min
same,Activity,HeLa [12],100%
same,Activity,[13],1.17
same,Activity,HeLa [14],0.11%
same,Activity,HeLa [15],84.4%
same,Activity,[16],0.59
same,Activity,HeLa [17],50%
same,LD50 at 336 h,[18],1000 mg/kg
same,Activity,HeLa [19],17.4%
same,AUC(0-inf),[20],5940 ng·h/mL
same,Activity,HeLa [21],6.7%
same,Activity,HeLa [22],1.42 g
same,viability at 0.2 µM,HeLa [23],26.4%
same,half-life,[24],1.56 h
COc1ccc(/C=C\c2cc(OC)c(OC)c(OC)c2)cc1O [COMBRETASTATIN A4],Activity,HeLa [25],74.2%
same,viability at 0.006 µM,HeLa [26],19.2%
same,Activity,HeLa [27],4.37%
same,Activity,HeLa [28],35.3%
same,Activity,HeLa [29],0.91%
same,Activity,HeLa [30],0.62%
same,Activity,HeLa [31],10.8%
